# Experimental data: patent USRE43244E1, “Phenylethylamines and condensed rings variants as prodrugs of catecholamines, and their use” (priority 2001, dated 2012)
# Structures can show the parent of a compound that is named as a salt.
# Experiments:
# rats [1] = settings: cited from earlier work
# DA receptors = settings: cited from earlier work
# Dopa accumulation = settings: normal animals, after NSD1015; cited from earlier work
# rodents = settings: cited from earlier work; for Dopaminergic stereotypic behavioral effects (sniffing, rearing): gross behavioral observations, certain dosages, rodents; for Locomotor activity: photocell motility meters
# [2] = tested on: DA metabolites DOPAC and HVA; settings: no NSD1015 treatment; cited from earlier work
# D3 dopamine receptor = D3 dopamine receptor (Rattus norvegicus, UniProt P19020); settings: among screened classical and atypical neuroleptics; cited from earlier work
# Sequence of D3 dopamine receptor (P19020 whole entry): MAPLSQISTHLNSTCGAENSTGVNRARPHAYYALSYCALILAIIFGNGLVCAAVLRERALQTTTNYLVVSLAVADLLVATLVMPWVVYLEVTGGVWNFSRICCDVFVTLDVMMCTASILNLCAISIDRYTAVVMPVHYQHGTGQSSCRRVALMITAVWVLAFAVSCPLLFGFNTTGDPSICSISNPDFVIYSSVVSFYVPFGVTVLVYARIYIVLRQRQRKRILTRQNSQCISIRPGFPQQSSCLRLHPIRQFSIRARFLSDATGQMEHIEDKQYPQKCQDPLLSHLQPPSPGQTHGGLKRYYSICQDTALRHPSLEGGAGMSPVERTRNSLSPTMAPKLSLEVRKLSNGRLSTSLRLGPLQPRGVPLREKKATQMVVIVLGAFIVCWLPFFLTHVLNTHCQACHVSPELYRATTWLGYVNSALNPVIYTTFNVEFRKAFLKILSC
# rats [3] = assay: Behavioral testing in rats of GMC6650; assay type: in vivo, rat
# Experimental: Behavioral Testing in Rats of Compound GMC6650 (Example 6)
# One rat, weighing about 350 g, was injected SC in the neck with 1 μmol/kg of GMC6650. Another rat, weighing about 350 g, was injected PO with the same dose. The drug (3.4 mg) was initially dissolved in: ethanol (50 μL), 1 M acetic acid (2 drops), and water (1.4 mL), corresponding to 15 μmol per 1.5 mL, which means a concentration of 10 μmol/mL. By first diluting that solution 10 times and injecting 0.35 mL, the given dose will be 1 μmol/kgμmol/kg. This goes for both of rats.
# Stereotypy was intense and was registered for several hours by visual inspection. […] The next morning, the SC rat was still active, while the PO rat was resting. Duration of action was thus ≧10 h for both sc and po administration of 1 μmol/kg.
# [4] = 1 μmol/kg, SC or PO (same pattern in both rats)
compound,measurement,setting,value
CCCN(CCC)CCC1=CC(=O)CCC1 (as salt: hydrochloride),melting point,,95 to 97 °C
CCCN1CCCC(C2=CC(=O)CCC2)C1 (stereo not shown) (as salt: hydrochloride),melting point,,184 to 185 °C
CCN(CC)CCC1=CC(=O)CCC1 (as salt: hydrochloride),melting point,,148 to 149 °C
CCCN(CCC1=CC(=O)CCC1)CCc1ccccc1 (as salt: hydrochloride),melting point,,110 to 112 °C
"CCCN(CCC)C1CCC2=C(CCCC2=O)C1 (racemic) [(±)-5-keto-DPATT, (±)-5-keto-2-N,N-di-n-propylamino-tetrahydrotetralin]",Dopaminergic effects in vivo,rats [1],does possess dopaminergic effects
same,Affinity to DA receptors (in vitro binding),DA receptors,no affinity
"CCCN[C@@H]1CCc2c(OC)cccc2[C@@H]1C (relative stereo) [(+)-AJ76, (+)-cis-1S,2R-5-methoxy-1-methyl-2-(N-n-propylamino)tetralin]",Dopa accumulation,Dopa accumulation,raise the Dopa accumulation
same,"Dopaminergic stereotypic behavioral effects (sniffing, rearing)",rodents,weak
same,Locomotor activity,rodents,increase the locomotor activity
same,Levels of DA metabolites DOPAC and HVA,[2],raise the levels
same,Preference for the D3 site,D3 dopamine receptor,highest preference for the D3 site
"CCCN(CCC)[C@@H]1CCc2c(OC)cccc2[C@@H]1C (relative stereo) [(+)-UH232, (+)-cis-1S,2R-5-methoxy-1-methyl-2-(N,N-di-n-propylamino)tetralin]",Dopa accumulation,Dopa accumulation,raise the Dopa accumulation
same,"Dopaminergic stereotypic behavioral effects (sniffing, rearing)",rodents,weak
same,Locomotor activity,rodents,increase the locomotor activity
same,Levels of DA metabolites DOPAC and HVA,[2],raise the levels
same,Preference for the D3 site,D3 dopamine receptor,highest preference for the D3 site
"CCCN1CCC[C@@H]2CC3=C(CCCC3=O)C[C@H]21 (relative stereo) [GMC6650, 1-Propyl-trans-2,3,4,4a,5,7,8,9,10,10a-decahydrobenzo[g]quinolin-6-one]",Activity the next morning,rats [3]; 1 μmol/kg PO,resting
same,Activity the next morning,rats [3]; 1 μmol/kg SC,still active
same,Duration of action,rats [3]; 1 μmol/kg po,≥ 10 h
same,Duration of action,rats [3]; 1 μmol/kg sc,≥ 10 h
same,Stereotypy after 10 hours,"rats [3]; 1 μmol/kg, SC and PO rat, 10 hours after dosing",still showing signs of stereotypy
same,Time until clear signs of stereotypy,rats [3]; [4],30 min
same,"Time until obvious dopaminergic effects (chewing, sniffing, licking, penile grooming, grooming)",rats [3]; [4],15 min
same,"Time until rats became sedated, closing or partly closing their eyes",rats [3]; [4],10 min
same,"Stereotypy, visual inspection","rats [3]; 1 μmol/kg, SC or PO, registered for several hours",intense
